# From patent US9593149B2, “Amylin and calcitonin receptor agonist” (Novo Nordisk A/S, priority 2014, dated 2017)
# Numbered stars: 1 amine (or outer) side, 2 acyl side, 3 side chain; on linkers, the order of the positions; unused ones are H or OH. Peptide text beside a SMILES is read from it. * marks the point of attachment. C20 diacid = O=C(O)CCCCCCCCCCCCCCCCCCC(=O)*; γGlu = O=C(O)[C@H](CCC(=O)[*:2])N[*:1]
# Legend:
# [1] = Assay (IV) determination of solubility; format: physicochemical
# Description: Assay (IV)—Determination of Solubility
# The mimylin peptide was dissolved in water at ˜500 nmol/ml and mixed 1:1 with a series of buffers (100 mM glycylglycine pH 3.0, 100 mM glycylglycine pH 4.0, 100 mM glycylglycine pH 5.0, 100 mM bistrispropane pH 6.0, 100 mM bistrispropane pH 6.5, 100 mM bistrispropane pH 7.0, 100 mM bistrispropane pH 7.5, 100 mM bistrispropane pH 8.0).
# [2] = molecular target: T1, rat calcitonin receptor (Rattus norvegicus, UniProt P32214); test: Assay (VIII) binding to the rat calcitonin receptor; conditions: membranes; read-out: rCT-R binding IC50
# T1 construct: expressed in transfected cells; host or cells: BHK tk'ts 13 (transient, FuGENE 6)
# T1 sequence (P32214 25-479 isoform P32214-2 limits assumed): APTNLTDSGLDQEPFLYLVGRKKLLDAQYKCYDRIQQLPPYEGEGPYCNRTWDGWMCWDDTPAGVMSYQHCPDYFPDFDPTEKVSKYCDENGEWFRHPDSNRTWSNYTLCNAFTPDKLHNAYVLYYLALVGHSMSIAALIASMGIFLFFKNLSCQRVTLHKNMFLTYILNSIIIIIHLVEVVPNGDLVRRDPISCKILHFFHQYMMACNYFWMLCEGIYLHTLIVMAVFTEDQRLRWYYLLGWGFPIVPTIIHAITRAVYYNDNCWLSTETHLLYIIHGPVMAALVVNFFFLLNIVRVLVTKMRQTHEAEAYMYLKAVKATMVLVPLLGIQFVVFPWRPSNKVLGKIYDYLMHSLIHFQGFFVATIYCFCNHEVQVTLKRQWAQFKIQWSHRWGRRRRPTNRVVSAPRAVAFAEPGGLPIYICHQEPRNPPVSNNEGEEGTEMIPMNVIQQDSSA
# Outline: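 Competition binding on membranes from BHK tk'ts 13 cells transiently transfected with rat calcitonin receptor, otherwise run as the human receptor assay. Plates washed in cold HBSS, lysed in 0.1 M NaOH/1% SDS and scintillation-counted. IC50 from one-site competition fit as affinity measure.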
Solubility ([1]; pH 3.0),Solubility ([1]; pH 4.0),solubility at 18 h ([1]; pH 5.0),Solubility ([1]; pH 6.0),Solubility ([1]; pH 6.5),Solubility ([1]; pH 7.0),Solubility ([1]; pH 7.5),Solubility ([1]; pH 8.0),IC50 [2],solubility at 18 h ([1]; pH 4.0),Solubility ([1]; pH 5.0),Compound
≧200 μM,≧200 μM,110 µM,≧200 μM,≧200 μM,≧200 μM,≧200 μM,≧200 μM,32 pM,,,"CC(C)C[C@H](NC(=O)CNC(=O)[C@H](CO)NC(=O)[C@H](C)NC(=O)COCCOCCNC(=O)COCCOCCNC(=O)CC[C@H](NC(=O)CCCCCCCCCCCCCCCCC(=O)O)C(=O)O)C(=O)N[C@@H](CO)C(=O)N[C@H](C(=O)N[C@@H](C)C(=O)N[C@H](C(=O)N[C@@H](CC(C)C)C(=O)NCC(=O)N[C@@H](CCCNC(=N)N)C(=O)N[C@@H](CC(C)C)C(=O)N[C@@H](CO)C(=O)N[C@@H](CCC(N)=O)C(=O)N[C@@H](CCC(=O)O)C(=O)N[C@@H](CC(C)C)C(=O)N[C@@H](Cc1cnc[nH]1)C(=O)N[C@@H](CCC(=O)O)C(=O)N[C@@H](CC(C)C)C(=O)N[C@@H](CCC(N)=O)C(=O)N[C@H](C(=O)N[C@@H](Cc1ccc(O)cc1)C(=O)N1CCC[C@H]1C(=O)N[C@@H](CCCNC(=N)N)C(=O)N[C@H](C(=O)N[C@@H](CCC(=O)O)C(=O)N[C@H](C(=O)NCC(=O)N[C@@H](CO)C(=O)NCC(=O)N[C@H](C(=O)N[C@@H](Cc1ccc(O)cc1)C(N)=O)[C@@H](C)O)[C@@H](C)O)[C@@H](C)O)[C@@H](C)O)C(C)C)[C@@H](C)O [compound 121, [N-terminal(C18 diacid-gGlu-2xOEG), des1, 4G, 9V, 15Q, 21Q, 23Y, 30S, 31G, 32T, 33Y]mimylin]"
≧200 μM,,,≧200 μM,≧200 μM,≧200 μM,≧200 μM,≧200 μM,28 pM,25 µM,≧200 μM,"CC(C)C[C@H](NC(=O)CNC(=O)[C@H](CO)NC(=O)[C@H](C)NC(=O)CC[C@H](NC(=O)CCCCCCCCCCCCCCCCCCC(=O)O)C(=O)O)C(=O)N[C@@H](CO)C(=O)N[C@H](C(=O)N[C@@H](C)C(=O)N[C@H](C(=O)N[C@@H](CC(C)C)C(=O)NCC(=O)N[C@@H](CCCNC(=N)N)C(=O)N[C@@H](CC(C)C)C(=O)N[C@@H](CO)C(=O)N[C@@H](CCC(N)=O)C(=O)N[C@@H](CCC(=O)O)C(=O)N[C@@H](CC(C)C)C(=O)N[C@@H](Cc1cnc[nH]1)C(=O)N[C@@H](CCC(=O)O)C(=O)N[C@@H](CC(C)C)C(=O)N[C@@H](CCC(N)=O)C(=O)N[C@H](C(=O)N[C@@H](Cc1ccc(O)cc1)C(=O)N1CCC[C@H]1C(=O)N1CCC[C@H]1C(=O)N[C@H](C(=O)N[C@@H](CCC(=O)O)C(=O)N[C@H](C(=O)NCC(=O)N[C@@H](CO)C(=O)NCC(=O)N[C@H](C(=O)N[C@@H](Cc1ccc(O)cc1)C(N)=O)[C@@H](C)O)[C@@H](C)O)[C@@H](C)O)[C@@H](C)O)[C@@H](C)O)[C@@H](C)O [compound 128, [N-terminal(C20 diacid-gGlu), des1, 4G, 9T, 15Q, 21Q, 23Y, 25P, 30S, 31G, 32T, 33Y]mimylin] ({C20 diacid-γGlu}-ASGLSTATLGRLSQELHELQTYPPTETGSGTY-NH2)"
≧200 μM,,,≧200 μM,≧200 μM,≧200 μM,≧200 μM,≧200 μM,246 pM,10 µM,≧200 μM,"CC(C)C[C@H](NC(=O)CNC(=O)[C@H](CO)NC(=O)[C@H](C)NC(=O)CC[C@H](NC(=O)CCCCCCCCCCCCCCCCCCC(=O)O)C(=O)O)C(=O)N[C@@H](CO)C(=O)N[C@H](C(=O)N[C@@H](C)C(=O)N[C@H](C(=O)N[C@@H](CC(C)C)C(=O)NCC(=O)N[C@@H](CCCCN)C(=O)N[C@@H](CC(C)C)C(=O)N[C@@H](CO)C(=O)N[C@@H](CCC(N)=O)C(=O)N[C@@H](CCC(=O)O)C(=O)N[C@@H](CC(C)C)C(=O)N[C@@H](Cc1cnc[nH]1)C(=O)N[C@@H](CCC(=O)O)C(=O)N[C@@H](CC(C)C)C(=O)N[C@@H](CCC(N)=O)C(=O)N[C@H](C(=O)N[C@@H](Cc1ccc(O)cc1)C(=O)N1CCC[C@H]1C(=O)N1CCC[C@H]1C(=O)N[C@H](C(=O)N[C@@H](CCC(=O)O)C(=O)N[C@H](C(=O)NCC(=O)N[C@@H](CO)C(=O)NCC(=O)N[C@H](C(=O)N[C@@H](Cc1ccc(O)cc1)C(N)=O)[C@@H](C)O)[C@@H](C)O)[C@@H](C)O)[C@@H](C)O)C(C)C)[C@@H](C)O [compound 131, [N-terminal(C20 diacid-gGlu), des1, 4G, 9V, 12K, 15Q, 21Q, 23Y, 25P, 30S, 31G, 32T, 33Y]mimylin] ({C20 diacid-γGlu}-ASGLSTAVLGKLSQELHELQTYPPTETGSGTY-NH2)"
